The results in this text go back to EPA's ToxValDB 9.5.

The subject of this series is Mus musculus. The note with it: oral.
The mark [1] stands for this setting: developmental, duration: 17 days, gavage, F, CD1, Developmental: Delayed postnatal development [eye opening, preputial separation and vaginal opening] and decreased body weight gain ….
Setting [2] is: developmental, duration: 18 days, gavage, F, Developmental: Decreased number of live births (36 and 31%) and pup survival at 1.1 and 2.0 mg/kg/day, but not […] / decreased number of ….
Where [3] appears, read: short-term, duration: 14 days, gavage, M, BALB/c, Body Weight: ~25% decrease in body weight + Hepatic: Increases in liver weight (~160%) and increases in hepatic triglyceride (~66%) and ….
The mark [4] stands for this setting: subchronic, duration: 90 days, gavage, M, Reproductive: Decreased sperm motility, viability, and number / degenerative changes in seminiferous tubules / decreased litter size.

Structures are written as SMILES. Values joined by “and” are separate entries in the source; they are usually repeats but may differ in a detail not shown here. Equal values may be shown once.

In the case of `O=C(O)C(F)(F)C(F)(F)C(F)(F)C(F)(F)C(F)(F)C(F)(F)C(F)(F)C(F)(F)F` [Perfluorononanoic acid], the NOAEL (in general, the highest dose or exposure tested at which no adverse effect was seen) is, setting by setting: (developmental, duration: 16 days, gavage, M/F, CD1, developmental) 1 mg/kg-day; under setting [1], 1 mg/kg-day; (developmental, duration: 18 days, gavage, F, Body Weight: No alterations in maternal body weight or gestational weight gain + Developmental: No alterations in the number of live pups …) 2 mg/kg-day; under setting [2], 0.83 mg/kg-day; (reproduction developmental, duration: 17 days, gavage, F, CD1, Hepatic: Increases in absolute and relative liver weights in dams on GD 17 and on post-weaning day 28 at ?1 mg/kg/day) 10 mg/kg-day; (reproduction developmental, duration: 18 days, gavage, F, Body Weight: No alterations in maternal body weight or gestational weight gain + Hepatic: Increase in dam liver weight at ?0.83 mg/kg/day) 2 mg/kg-day. In addition, the NOAEL (short-term, duration: 7 days, gavage, M, Hepatic: Hepatocellular hypertrophy, steatosis, and increased hepatic triglyceride levels) was found to be 10 mg/kg-day; the NOAEL (short-term, duration: 14 days, diet, M/F, CD1, Hepatic: 50-70% increase in absolute liver weight at ?0.5 mg/kg/day) worked out at 5.3 mg/kg-day; the NOAEL under setting [3] was found to be 1 mg/kg-day; the NOAEL (subchronic, duration: 90 days, gavage, M, Hepatic: 33% decrease in serum cholesterol) is 0.5 mg/kg-day; the no observed adverse effect level (NOAEL) under setting [4] is 0.2 mg/kg-day. The LOAEL – broadly, the lowest dose or exposure tested at which an adverse effect was seen – is, setting by setting: under setting [1], 3 mg/kg-day and 5 mg/kg-day; under setting [2], 1.1 mg/kg-day; (reproduction developmental, duration: 17 days, gavage, F, CD1, Body Weight: 43% maternal weight loss at GD 13) 10 mg/kg-day; (short-term, duration: 14 days, diet, M/F, CD1, Death: 100% mortality before day 14) 54 mg/kg-day; under setting [3], 5 mg/kg-day; (short-term, duration: 14 days, gavage, M, BALB/c, Immunotoxicological: Decreases in the percentages of F4/80+ and CD49b+ cells in the spleen / no alteration in the response of splenic …) 1 mg/kg-day. Under setting [4], this compound came in with an LOAEL of 0.5 mg/kg-day.
